Laboratory results published in PubChem BioAssay (NCI).
Values joined by “and” are separate entries in the source; they are usually repeats but may differ in a detail not shown here. Equal entries are not always repeated.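 How tested: cells in 96-well plates exposed to compound for 48 hours at five concentrations. Here, GI50 denotes the concentration required for 50% inhibition of growth. TGI: total growth inhibition.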

Tests used:
Assay in all cases: NCI anticancer screen, dose series, 48 h
[1] = system: RXF 393 renal
[2] = system: NCI-H23 lung
[3] = system: HOP-62 NSCLC
[4] = system: UO-31 renal
[5] = system: LXFL 529 NSCLC
[6] = system: LOX IMVI melanoma
[7] = system: DLD-1 colon
[8] = system: IGROV1 ovarian
[9] = system: MOLT-4 leukemia
[10] = system: SF-268 CNS
[11] = system: HCT-15 colon
[12] = system: DMS 273 small cell lung
[13] = system: TK-10 renal
[14] = system: HCT-116 colon
[15] = system: SNB-78 CNS
[16] = system: M14 melanoma
[17] = system: K-562 leukemia
[18] = system: OVCAR-8 ovarian
[19] = system: SF-295 CNS
[20] = system: HT29 colon
[21] = system: KM12 colon
[22] = system: HCC-2998 colon
[23] = system: HL-60(TB) leukemia
[24] = system: SR leukemia
[25] = system: A549 NSCLC
[26] = system: SF-539 CNS
[27] = system: UACC-257 melanoma
[28] = system: SNB-75 CNS
[29] = system: EKVX NSCLC
[30] = system: COLO 205 colon
[31] = system: SK-MEL-2 melanoma
[32] = system: CAKI-1 renal
[33] = system: NCI-H460 lung
[34] = system: SN12C renal
[35] = system: SNB-19 CNS
[36] = system: 786-0 renal
[37] = system: SK-MEL-28 melanoma
[38] = system: OVCAR-3 ovarian
[39] = system: A498 renal
[40] = system: SW-620 colon
[41] = system: RPMI-8226 leukemia
[42] = system: ACHN renal
[43] = system: CCRF-CEM leukemia
[44] = system: OVCAR-4 ovarian
[45] = system: DMS 114 small cell lung
[46] = system: U251 CNS
[47] = system: OVCAR-5 ovarian
[48] = system: T-47D breast
[49] = system: HOP-92 NSCLC
[50] = system: NCI-H522 lung
[51] = system: XF 498 CNS
[52] = system: MALME-3M melanoma
[53] = system: SK-MEL-5 melanoma
[54] = system: SK-OV-3 ovarian
[55] = system: HS 578T breast
[56] = system: UACC-62 melanoma
[57] = system: MDA-MB-231 breast
[58] = system: NCI/ADR-RES ovarian
[59] = system: MCF7 breast
[60] = system: MDA-N
[61] = system: KM20L2 colon
[62] = system: DU-145 prostate
[63] = system: BT-549 breast
[64] = system: NCI-H226 lung
[65] = system: MDA-MB-435

SMILES: O=C(O)CCSC(=O)Nc1cccc([N+](=O)[O-])c1
- TGI [1]: > 100 µM
- TGI [2]: > 100 µM
- TGI [3]: > 100 µM
- TGI [4]: > 100 µM
- TGI [5]: > 100 µM
- TGI [6]: > 100 µM
- TGI [7]: > 100 µM
- TGI [8]: > 100 µM
- TGI [9]: > 100 µM
- TGI [10]: 64.8 µM
- TGI [11]: > 100 µM
- TGI [12]: > 100 µM
- TGI [13]: > 100 µM
- TGI [14]: > 100 µM
- TGI [15]: > 100 µM
- TGI [16]: > 100 µM
- TGI [17]: > 100 µM
- TGI [18]: > 100 µM
- TGI [19]: > 100 µM
- TGI [20]: > 100 µM
- TGI [21]: > 100 µM
- TGI [22]: > 100 µM
- TGI [23]: > 100 µM
- TGI [24]: > 100 µM
- TGI [25]: > 100 µM
- TGI [26]: > 100 µM
- TGI [27]: > 100 µM
- TGI [28]: > 100 µM
- TGI [29]: > 100 µM
- TGI [30]: > 100 µM
- TGI [31]: > 100 µM
- TGI [32]: > 100 µM
- TGI [33]: > 100 µM
- TGI [34]: > 100 µM
- TGI [35]: > 100 µM
- TGI [36]: > 100 µM
- TGI [37]: > 100 µM
- TGI [38]: > 100 µM
- TGI [39]: > 100 µM
- TGI [40]: > 100 µM
- TGI [41]: > 100 µM
- TGI [42]: > 100 µM
- TGI [43]: > 100 µM
- TGI [44]: > 100 µM
- TGI [45]: > 100 µM
- TGI [46]: > 100 µM

SMILES: O=C1C=C(N2CC2)C(=O)C=C1N1CC1
- GI50 [1]: 0.00246 µM
- GI50 [47]: 0.0784 µM
- TGI [47]: 0.366 µM and 2.2 µM
- GI50 [2]: 0.0141 µM
- TGI [2]: 0.132 µM and 0.289 µM
- GI50 [48]: 0.0516 µM
- TGI [48]: 0.582 µM and 2.85 µM
- GI50 [3]: 0.0687 µM
- TGI [3]: 0.738 µM
- GI50 [49]: 0.152 µM
- TGI [49]: 0.576 µM and 1.56 µM
- TGI [4]: 0.229 µM
- GI50 [50]: 0.00826 µM
- TGI [50]: 0.0727 µM and 0.144 µM
- TGI [51]: 0.538 µM
- GI50 [52]: 0.0498 µM
- TGI [52]: 0.234 µM and 0.238 µM
- GI50 [53]: 0.0155 µM
- TGI [53]: 0.072 µM and 0.307 µM
- TGI [54]: 2.19 µM
- TGI [5]: 0.527 µM
- GI50 [6]: 0.0298 µM
- TGI [6]: 0.206 µM and 0.386 µM
- TGI [7]: 1.5 µM
- TGI [55]: 8.14 µM
- TGI [8]: 2.48 µM
- GI50 [56]: 0.01 µM
- GI50 [9]: 0.00197 µM
- TGI [9]: 0.248 µM
- GI50 [10]: 0.0109 µM
- TGI [10]: 0.299 µM and 1.5 µM
- GI50 [11]: 0.0207 µM
- TGI [11]: 0.231 µM and 1.21 µM
- TGI [12]: 0.52 µM
- GI50 [13]: 0.208 µM
- TGI [13]: 0.772 µM
- GI50 [57]: 0.0792 µM
- GI50 [58]: 0.0241 µM
- GI50 [59]: 0.00205 µM
- TGI [59]: 0.0712 µM
- TGI [15]: 1.8 µM
- GI50 [16]: 0.0288 µM
- TGI [16]: 0.249 µM
- GI50 [17]: 0.246 µM
- TGI [17]: 2.94 µM
- TGI [18]: 4.31 µM
- GI50 [60]: 0.113 µM
- TGI [60]: 0.274 µM and 1.9 µM
- GI50 [19]: 0.038 µM
- TGI [19]: 0.266 µM and 1.3 µM
- GI50 [20]: 0.0185 µM
- TGI [20]: 1.4 µM
- GI50 [21]: 0.242 µM
- TGI [21]: 2.22 µM
- GI50 [22]: 0.0234 µM
- TGI [22]: 0.15 µM and 0.739 µM
- GI50 [23]: 0.00233 µM
- TGI [23]: 0.51 µM and 0.197 µM
- GI50 [24]: 0.0266 µM
- TGI [24]: 0.302 µM
- GI50 [25]: 0.145 µM and 0.86 µM
- TGI [25]: 11.2 µM
- GI50 [26]: 0.0221 µM
- TGI [26]: 0.267 µM and 0.268 µM
- GI50 [27]: 0.121 µM
- TGI [27]: 0.339 µM and 0.999 µM
- GI50 [28]: 0.00736 µM
- TGI [61]: 1.74 µM
- GI50 [29]: 0.404 µM and 2.65 µM
- TGI [29]: 4.84 µM
- GI50 [30]: 0.034 µM
- TGI [30]: 0.126 µM and 0.267 µM
- GI50 [62]: 0.0109 µM
- GI50 [63]: 0.0207 µM
- TGI [63]: 0.159 µM and 1.34 µM
- GI50 [31]: 0.0282 µM
- TGI [31]: 0.0605 µM and 0.36 µM
- GI50 [32]: 0.000251 µM
- TGI [32]: 0.0247 µM and 0.0675 µM
- GI50 [64]: 0.0129 µM
- TGI [64]: 0.261 µM and 1.4 µM
- GI50 [33]: 0.00521 µM
- TGI [33]: 0.2 µM and 0.781 µM
- GI50 [34]: 0.0307 µM
- TGI [34]: 0.278 µM and 1.14 µM
- GI50 [35]: 0.203 µM
- TGI [35]: 4.72 µM
- GI50 [37]: 0.187 µM
- TGI [37]: 0.68 µM and 0.654 µM
- GI50 [65]: 0.0206 µM
- GI50 [38]: 0.153 µM
- TGI [38]: 0.967 µM and 0.277 µM
- TGI [39]: 0.158 µM
- GI50 [40]: 0.0147 µM
- TGI [40]: 0.848 µM
- GI50 [41]: 0.0456 µM
- TGI [41]: 0.503 µM and 1.87 µM
- TGI [42]: 0.303 µM
- GI50 [43]: 0.00568 µM
- TGI [43]: 0.456 µM
- GI50 [44]: 0.185 µM
- TGI [44]: 0.983 µM and 0.613 µM
- TGI [45]: 0.644 µM
- GI50 [46]: 0.0233 µM
- TGI [46]: 0.284 µM and 1.49 µM
